≈ marks a conversion by molar mass, not a printed value. Calls of active or inactive are those of the source. The rule behind the calls is not given here.

The test system of data set [1] is Staphylococcus aureus. Put plainly: Bactericidal activity against Staphylococcus aureus ATCC 29213 assessed as reduction in bacterial load at 4 to 8 ug/ml preincubated for up to 24 hrs followed by subculturing on LB agar plate by time-kill assay. Format: functional, organism-based.
The subject of data set [2] is Enterococcus faecalis. Put plainly: Bactericidal activity against Enterococcus faecalis ATCC 29212 assessed as reduction in bacterial load at 16 ug/ml preincubated for up to 24 hrs followed by subculturing on LB agar plate by time-kill assay. Format: functional, organism-based.
Data set [3] has as its system Staphylococcus aureus. Put plainly: Antibacterial activity against methicillin-resistant Staphylococcus aureus ATCC 43300 infected in Galleria mellonella larvae assessed as increase in larvae survival at 50 mg/kg measured up to 72 hrs post-infection. It counts as functional, organism-based.
The subject of data set [4] is Staphylococcus aureus. Briefly: Antibacterial activity against daptomycin-resistant Staphylococcus aureus SA11 infected in Galleria mellonella larvae assessed as increase in larvae survival at 50 mg/kg measured up to 72 hrs post-infection. Format: functional, organism-based.
Data set [5] has as its system Staphylococcus aureus. Briefly: Antibacterial activity against daptomycin-resistant Staphylococcus aureus SA11 infected in NIH mouse model of neutropenic thigh infection assessed reduction in bacterial level in thigh at 50 mg/kg, sc administered at 2 and 12 hrs post infection and measured at 48 to 60 hrs post-infection. Format: functional, organism-based.
The test system of data set [6] is Staphylococcus aureus. Put plainly: Antibacterial activity against Staphylococcus aureus USA300 infected in Balb/c mouse model of sepsis assessed as bacterial eradication in kidney at 1.25 mg/kg, sc administered twice daily for 3 days starting from 1 hr post-infection followed by subculturing on LB agar plate and measured after overnight incubation. It counts as functional, organism-based.

Data set [7] concerns Enterococcus faecalis. Briefly: Antibacterial activity against Enterococcus faecalis ZS129 infected in Galleria mellonella larvae assessed as increase in larvae survival at 50 mg/kg measured up to 72 hrs post-infection. Format: functional, organism-based.
In data set [8] the test system is Enterococcus faecalis. Briefly: Antibacterial activity against Enterococcus faecalis T1027 infected in Galleria mellonella larvae assessed as increase in larvae survival at 50 mg/kg measured 96 hrs post-infection. Format: functional, organism-based.
Data set [9] has as its system Enterococcus faecalis. Briefly: Antibacterial activity against daptomycin-resistant Enterococcus faecalis T1027 infected in NIH mouse model of neutropenic thigh infection assessed reduction in bacterial level in thigh at 50 mg/kg, sc administered at 2 and 12 hrs post infection and measured at 48 to 60 hrs post-infection. It counts as functional, organism-based.
In data set [10] the test system is Enterococcus faecalis. Put plainly: Antibacterial activity against Enterococcus faecalis ATCC 29212 at sub-MIC after 7 serial passages by broth microdilution method. It counts as functional, organism-based.
Data set [11] deals with Staphylococcus aureus. Briefly: Induction of cell membrane integrity disruption in Staphylococcus aureus ATCC 29213 at 8 ug/ml measured after 0.5 to 2 hrs by SYTOX green staining based fluorescence assay. Format: organism-based.
Data set [12] relates to Enterococcus faecalis. Briefly: Induction of cell membrane integrity disruption in Enterococcus faecalis ATCC 29212 at 16 ug/ml measured after 0.5 to 2 hrs by SYTOX green staining based fluorescence assay. Format: organism-based.
For data set [13], the system named is Enterococcus faecalis. Put plainly: Induction of cell membrane integrity disruption in Enterococcus faecalis ATCC 29212 at 16 ug/ml measured after 1 hr by SYTOX green staining based confocal laser scanning microscopic analysis. Format: organism-based.
In another data set the test system is Erythrocyte. Briefly: Hemolytic activity against rat RBC at 320 ug/ml measured after 1 hr. It counts as ADME, cell-based.
The next data set relates to HEK293. Briefly: Cytotoxicity against HEK293 cells assessed as reduction in cell viability at >= 20 mg/ml measured after 24 hrs by MTT assay. It counts as cell-based. The note with it: human, hek293, 24 h.
The nature of data set [14]: Aqueous solubility of the compound in 0.9% NaCl at >= 100 measured after 15 mins. Format: physicochemical. The note with it: buffer, 0.25 h.
Data set [15] has as its system Enterococcus faecium. Briefly: Antibacterial activity against Enterococcus faecium ET60 by broth microdilution method. Format: functional.
Data set [16] has as its system Enterococcus faecalis. Briefly: Antibacterial activity against Streptococcus faecalis by broth microdilution method. It counts as functional. Background: In broth dilution the organism is exposed to a series of concentrations in liquid medium.
In data set [17] the test system is Enterococcus faecium. Put plainly: Antibacterial activity against Enterococcus faecium ET6 by broth microdilution method. It counts as functional.
Data set [18] deals with Staphylococcus aureus. Put plainly: Antibacterial activity against methicillin-resistant Staphylococcus aureus SA14 by broth microdilution method. It counts as functional.
The subject of data set [19] is Staphylococcus aureus. Put plainly: Antibacterial activity against methicillin-resistant Staphylococcus aureus SA11 by broth microdilution method. Format: functional.
Data set [20] has as its system Staphylococcus aureus. Briefly: Antibacterial activity against methicillin-resistant Staphylococcus aureus SA86 by broth microdilution method. It counts as functional.
The subject of data set [21] is Staphylococcus aureus. Put plainly: Antibacterial activity against methicillin-resistant Staphylococcus aureus SA88 by broth microdilution method. It counts as functional.
Data set [22] deals with Staphylococcus aureus. Briefly: Antibacterial activity against Staphylococcus aureus ATCC 29213 by broth microdilution method. It counts as functional.
The test system of data set [23] is Enterococcus faecalis. Briefly: Antibacterial activity against Enterococcus faecalis ATCC 29212 by broth microdilution method. It counts as functional.

As for `CCCCCCCCCC(=O)N[C@@H](Cc1c[nH]c2ccccc12)C(=O)N[C@@H](CC(N)=O)C(=O)N[C@@H](CC(=O)O)C(=O)N[C@@H]1C(=O)NCC(=O)N[C@@H](CCCN)C(=O)N[C@H](CC(=O)O)C(=O)N[C@H](C)C(=O)N[C@@H](CC(=O)O)C(=O)NCC(=O)N[C@H](CO)C(=O)N[C@@H]([C@@H](C)CC(=O)O)C(=O)N[C@@H](CC(=O)c2ccccc2N)C(=O)O[C@@H]1C`, the outcome in the data set on Staphylococcus aureus [1], in the data set with Enterococcus faecalis [2], in the data set with Staphylococcus aureus [3], in the data set on Staphylococcus aureus [4], in the data set on Staphylococcus aureus [5] and in the data set with Enterococcus faecalis [7] was Active. The outcome in the data set on Enterococcus faecalis [8], in the data set on Enterococcus faecalis [9], in the data set on Staphylococcus aureus [11], in the data set on Enterococcus faecalis [12] and with Enterococcus faecalis [13] was Active. For the same compound, the result in the data set with Staphylococcus aureus [6] and with Enterococcus faecalis [10] was inactive.
As to `CCCCCCCCCC(=O)N[C@@H](Cc1c[nH]c2ccccc12)C(=O)N[C@H](CC(N)=O)C(=O)N[C@@H](CC(=O)O)C(=O)N[C@@H]1C(=O)NCC(=O)N[C@@H](CCCN)C(=O)N[C@@H](CC(=O)O)C(=O)N[C@H](C)C(=O)N[C@@H](CC(=O)O)C(=O)NCC(=O)N[C@H](CO)C(=O)N[C@@H]([C@@H](C)CC(=O)O)C(=O)N[C@@H](CC(=O)c2ccccc2N)C(=O)O[C@@H]1C`, the Activity result in the data set on Erythrocyte was “Non-Toxic”; in the data set with HEK293, “Toxic”. Also, the solubility entry in [14] was “Soluble”.
By MIC is commonly meant the least concentration at which growth counts as inhibited. Regarding `CCCCCCCCCC(=O)N[C@@H](Cc1c[nH]c2ccccc12)C(=O)N[C@@H](CC(N)=O)C(=O)N[C@@H](CC(=O)O)C(=O)N[C@@H]1C(=O)N(C)CC(=O)N[C@@H](CCCN)C(=O)N[C@@H](CC(=O)O)C(=O)N[C@H](C)C(=O)N[C@@H](CC(=O)O)C(=O)NCC(=O)N[C@H](CO)C(=O)N[C@@H]([C@H](C)CC(=O)O)C(=O)N[C@@H](CC(=O)c2ccccc2N)C(=O)O[C@@H]1C`, the MIC was determined as 4 µg/mL (≈ 2.45 µM) against Enterococcus faecium [15]; 2 µg/mL (≈ 1.22 µM) with Enterococcus faecalis [16]; 8 µg/mL (≈ 4.89 µM) with Enterococcus faecium [17]; 0.25 µg/mL (≈ 0.153 µM) against Staphylococcus aureus [18]; 0.5 µg/mL (≈ 0.306 µM) against Staphylococcus aureus [19]; 0.5 µg/mL (≈ 0.306 µM) in the data set with Staphylococcus aureus [20]. The values for the MIC in the data set with Staphylococcus aureus [21], against Staphylococcus aureus [22] and against Enterococcus faecalis [23] were 0.5 µg/mL (≈ 0.306 µM), 0.5 µg/mL (≈ 0.306 µM) and 8 µg/mL (≈ 4.89 µM), respectively.
